From patent US6492365B1, “Microsomal triglyceride transfer protein” (Bristol-Myers Squibb Company, priority 1992, dated 2002)
Where a name gives a salt, the structure may show the parent alone.

Compared with `O=C(NC1CCN(CCc2ccccc2)CC1)C(c1ccccc1)c1ccccc1` (as salt: hydrochloride) [Example 30, α-Phenyl-N-[1-(phenylethyl)-4-piperidinyl]-benzeneacetamide, monohydrochloride], `COc1ccccc1C(=O)NC1CCN(CCC(c2ccccc2)c2ccccc2)CC1` (as salt: hydrochloride) [Example 38, N-[1-(3,3-Diphenylpropyl)-4-piperidinyl]-2-methoxybenzamide, monohydrochloride] is lower in melting point: 263 to 264 °C for the first, 170 to 172 °C for the second.

First: COc1ccccc1N1CCN(CC2CC(=O)c3ccc(F)cc3C2)CC1 (centres unmarked) [Example 22, 6-Fluoro-3,4-dihydro-3-[[4-(2-methoxyphenyl)-1-piperazinyl]-methyl]-1(2H)-naphthalenone]
Second: O=C1CC(CN2CCN(c3ccccc3)CC2)Cc2ccccc21 (centres unmarked) (as salt: hydrochloride) [Example 23, 3,4-Dihydro-3-[(4-phenyl-1-piperazinyl)methyl]-1-(2H)-naphthalenone, monohydrochloride]
The melting point of the first is lower: 111 to 113 °C for the first, 243 to 246 °C for the second.

Compared with `O=C1c2ccccc2CN1C1CCN(CC=C(c2ccccc2)c2ccccc2)CC1` (as salt: hydrochloride) [Example 11, 2-[1-(3,3-Diphenyl-2-propenyl)-4-piperidinyl]-2,3-dihydro-1H-isoindol-1-one, monohydrochloride], `O=C1c2ccccc2CN1C1CCN(C/C=C/CC(c2ccccc2)c2ccccc2)CC1` (as salt: hydrochloride) [Example 33, 2-[1-(5,5-Diphenyl-2-pentenyl)-4-piperidinyl]-2,3-dihydro-1H-isoindol-1-one, monohydrochloride] is lower in melting point: 231 to 235 °C for the first, 127 to 134 °C for the second.

First: COc1ccccc1N1CCN(C(=O)C2CC(=O)c3ccccc3C2)CC1 (centres unmarked) (as salt: hydrochloride) [Example 25, 3,4-Dihydro-3-[[4-(2-methoxyphenyl)-1-piperazinyl]-carbonyl]-1(2H)-naphthalenone, monohydrochloride]
Second: COc1ccccc1CCCN1CCC(N2Cc3ccccc3C2=O)CC1 (as salt: hydrochloride) [Example 21, 2,3-Dihydro-2-[1-[3-(2-methoxyphenyl)propyl]-4-piperidinyl]-1H-isoindol-1-one, monohydrochloride]
The melting point of the first is higher: 197 to 199 °C for the first, 191 to 195 °C for the second.

Compared with `O=C1c2ccccc2CN1C1CCN(CCCc2ccccc2Oc2ccccc2)CC1` (as salt: hydrochloride) [Example 34, 2,3-Dihydro-2-[1-[3-(2-phenoxyphenyl)propyl]-4-piperidinyl]-1H-isoindol-1-one, monohydrochloride], `O=C1c2ccccc2CN1C1CCN(C/C=C/c2ccccc2Oc2ccccc2)CC1` (as salt: hydrochloride) [Example 20, (E)-2,3-Dihydro-2-[1-[3-(2-phenoxyphenyl)-2-propenyl]-4-piperidinyl]-1H-isoindol-1-one, monohydrochloride] is higher in melting point: 199 to 202 °C for the first, 215 to 218 °C for the second.

Compared with `CCCCC(=CCN1CCC(N2Cc3ccccc3C2=O)CC1)CCCC` (as salt: hydrochloride) [Example 32, 2-[1-(3-Butyl-2-heptenyl)-4-piperidinyl]-2,3-dihydro-1H-isoindol-1-one, monohydrochloride], `CCCCC(CCCC)CCN1CCC(N2Cc3ccccc3C2=O)CC1` (as salt: hydrochloride) [Example 17, 2-[1-(3-Butylheptyl)-4-piperidinyl]-2,3-dihydro-1H-isoindol-1-one, monohydrochloride] is higher in melting point: 147 to 152 °C for the first, 185 to 187 °C for the second.

Compared with `O=C(Cc1c[nH]c2ccccc12)NC1CCN(Cc2ccccc2)CC1` [Example 28, N-[1-(Phenylmethyl)-4-piperidinyl]-1H-indole-3-acetamide], `O=C1c2ccccc2CN1C1CCN(Cc2ccccc2)CC1` (as salt: hydrochloride) [Example 13, 2,3-Dihydro-2-[1-(phenylmethyl)-4-piperidinyl]-1H-isoindol-1-one, monohydrochloride] is higher in melting point: 153 to 154 °C for the first, 271 to 274 °C for the second.

First: O=C1c2ccccc2CN1C1CCN(C(c2ccccc2)c2ccccc2)CC1 (as salt: hydrochloride) [Example 35, 2,3-Dihydro-2-[1-(diphenylmethyl)-4-piperidinyl]-1H-isoindol-1-one, monohydrochloride]
Second: O=C1c2ccccc2CN1C1CCN(C/C=C\CC(c2ccccc2)c2ccccc2)CC1 (as salt: hydrochloride) [Example 36, (Z)-2,3-Dihydro-2-[1-(5,5-diphenyl-2-pentenyl)-4-piperidinyl]-1H-isoindol-1-one, monohydrochloride]
The melting point of the first is lower: 165 to 169 °C for the first, 174 to 177 °C for the second.

First: O=C(NC1CCN(CCC(c2ccccc2)c2ccccc2)CC1)c1ccccn1 (as salt: hydrochloride) [Example 40, N-[1-(3,3-Diphenylpropyl)-4-piperidinyl]-2-pyridineamide, monohydrochloride]
Second: CC(=O)N(Cc1ccccc1)C1CCN(CCC(c2ccccc2)c2ccccc2)CC1 (as salt: hydrochloride) [Example 41, N-[1-(3,3-Diphenylpropyl)-4-piperidinyl]-N-(phenylmethyl)acetamide, monohydrochloride]
The melting point of the first is higher: 109 to 116 °C for the first, 102 to 105 °C for the second.

Compared with `O=C(c1ccccc1)N(Cc1ccccc1)C1CCN(CCC(c2ccccc2)c2ccccc2)CC1` (as salt: hydrochloride) [Example 42, N-[1-(3,3-Diphenylpropyl)-4-piperidinyl]-N-(phenylmethyl)benzamide, monohydrochloride], `COc1ccc(C(C(=O)NC2CCN(CCc3ccccc3)CC2)c2ccc(OC)cc2)cc1` (as salt: hydrochloride) [Example 29, 4-Methoxy-α-(4methoxyphenyl)-N-[1-(2-phenylethyl)-4-piperidinyl]benzeneacetamide, monohydrochloride] is higher in melting point: 115 to 120 °C for the first, 180 to 182 °C for the second.

Compared with `O=C1c2ccccc2CN1C1CCN(CCCc2ccccc2)CC1` (as salt: hydrochloride) [Example 14, 2,3-Dihydro-2-[1-(3-phenylpropyl)-4-piperidinyl]-1H-isoindol-1-one, monohydrochloride], `O=C1c2ccc(Cl)cc2CN1C1CCN(Cc2ccccc2)CC1` (as salt: hydrochloride) [Example 31, 5-Chloro-2,3-dihydro-2-[1-(phenylmethyl)-4-piperidinyl]-1H-isoindol-1-one, monohydrochloride] is higher in melting point: 229 to 231 °C for the first, 269 to 271 °C for the second.

`O=C1CC(CN2CCN(C(c3ccccc3)c3ccc(Cl)cc3)CC2)Cc2cc(F)ccc21` (centres unmarked) (as salt: hydrochloride) [Example 27, 3-[[4-[(4-Chlorophenyl)phenylmethyl]-1-piperazinyl]methyl]-6-fluoro-3,4-dihydro-1(2H)-naphthalenone, dihydrochloride] showed a melting point of 211 to 212 °C.
